Test: Severe test against heat (storage at 45° C. for 3 months, residual rate by HPLC)
Format: physicochemical
Procedure: In preparation of 0.1 mM sodium acetate pH buffer of pH 5.5 in Example 2, four kinds of solutions were prepared so that concentration of sodium chloride was 3 mM, 10 mM, 154 mM and 500 mM. Elcatonin was dissolved therein so that elcatonin concentration was 7 μg/ml. Each of the compositions was filled in an ampule in the same manner as in Example 1 to prepare elcatonin injections having four kinds of ionic strength. The resulting elcatonin injections were stored at 45° C. for 3 months and residual rate was obtained under the same conditions as in Test Example 1.

Residual rate (%) (NaCl 3 mM, ionic strength 0.003, 0.1 mM sodium acetate pH 5.5, elcatonin 7 μg/ml): 50%
Residual rate (%) (NaCl 10 mM, ionic strength 0.010, 0.1 mM sodium acetate pH 5.5, elcatonin 7 μg/ml): 79%
Residual rate (%) (NaCl 154 mM, ionic strength 0.154, 0.1 mM sodium acetate pH 5.5, elcatonin 7 μg/ml): 98%
Residual rate (%) (NaCl 500 mM, ionic strength 0.500, 0.1 mM sodium acetate pH 5.5, elcatonin 7 μg/ml): 97%
Substance: 1-butyric acid-7-(L-2-aminobutyric acid)-26- o L-aspartic acid-27-L-valine-29-L-alanine-calcitonin (salmon) [Elcatonin]
